Measured values taken from ChEMBL document CHEMBL1250448, “Inhibitor hijacking of Akt activation” (Nat Chem Biol, 2009).
Values belong to the compound of their own block, whether it stands above or below them. Activity calls are given as the source filed them. The calls are words filed in the database; no cut-off is given here.

Columns and labels:
MiaPaCa2 [1] = assay: Induction of myristoylated AKT2 M225G and kinase dead D289A mutant Ser473 hyperphosphorylation expressed in MiaPaCa2 cells at 2.5 uM after 30 mins by immunoblotting; format: cell-based
[2] = tested on: RAC-alpha serine/threonine-protein kinase (Homo sapiens), P31749 [M227G,D292A]; assay: Induction of myristoylated AKT1 M227G and kinase dead D292A mutant Ser473 hyperphosphorylation expressed in PC3 cells at 2.5 uM after 30 mins by immunoblotting; format: cell-based; conditions: PC-3
RAC-alpha serine/threonine-protein kinase (Homo sapiens), P31749 [M227G,D292A], sequence (P31749 whole entry M227G/D292A): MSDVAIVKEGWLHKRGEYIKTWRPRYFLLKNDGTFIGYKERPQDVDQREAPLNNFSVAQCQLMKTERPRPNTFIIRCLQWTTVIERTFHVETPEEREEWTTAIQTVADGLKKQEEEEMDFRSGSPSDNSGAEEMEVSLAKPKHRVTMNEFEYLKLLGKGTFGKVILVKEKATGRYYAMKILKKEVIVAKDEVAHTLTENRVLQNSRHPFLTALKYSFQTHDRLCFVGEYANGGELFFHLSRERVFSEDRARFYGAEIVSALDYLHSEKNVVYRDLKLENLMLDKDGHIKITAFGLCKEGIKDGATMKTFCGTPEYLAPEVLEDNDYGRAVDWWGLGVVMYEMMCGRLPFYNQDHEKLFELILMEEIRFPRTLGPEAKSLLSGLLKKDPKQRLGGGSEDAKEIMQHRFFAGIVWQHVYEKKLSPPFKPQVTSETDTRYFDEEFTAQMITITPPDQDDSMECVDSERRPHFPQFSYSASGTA

[3] = tested on: RAC-alpha serine/threonine-protein kinase (Homo sapiens), P31749 [M227G]; assay: Induction of myristoylated AKT1 M227G Ser473 hyperphosphorylation expressed in MCF7 cells at 2.5 uM after 30 mins by immunoblotting; format: cell-based
RAC-alpha serine/threonine-protein kinase (Homo sapiens), P31749 [M227G], sequence (P31749 whole entry M227G): as the sequence (P31749 whole entry M227G/D292A) above, with A292D counted along it

MCF7 [4] = assay: Induction of myristoylated AKT2 M225G mutant Ser473 hyperphosphorylation expressed in MCF7 cells at 2.5 uM after 30 mins by immunoblotting; format: cell-based
MiaPaCa2 [5] = assay: Induction of myristoylated AKT2 M225G mutant Ser473 hyperphosphorylation expressed in MiaPaCa2 cells at 2.5 uM after 30 mins by immunoblotting; format: cell-based
[6] = tested on: RAC-alpha serine/threonine-protein kinase (Homo sapiens), P31749 [M227G]; assay: Induction of myristoylated AKT1 M227G Ser473 hyperphosphorylation expressed in PC3 cells at 2.5 uM after 30 mins by immunoblotting; format: cell-based; conditions: PC-3
[7] = tested on: RAC-alpha serine/threonine-protein kinase (Homo sapiens), P31749 [M227G]; assay: Induction of myristoylated AKT1 M227G Ser473 hyperphosphorylation expressed in HEK293 cells coexpressing flag-tagged wild type AKT1 after 30 mins by immunoblotting; format: cell-based
[8] = tested on: RAC-alpha serine/threonine-protein kinase (Homo sapiens), P31749 [M227G]; assay: Induction of myristoylated AKT1 M227G Thr308 hyperphosphorylation expressed in HEK293 cells coexpressing flag-tagged wild type AKT1 after 30 mins by immunoblotting; format: cell-based
[9] = tested on: RAC-alpha serine/threonine-protein kinase (Homo sapiens), P31749 [M227G]; assay: Induction of flag tagged AKT1 M227G Ser473 hyperphosphorylation expressed in HEK293 cells at 2.5 uM after 30 mins by immunoblotting; format: cell-based
[10] = tested on: RAC-alpha serine/threonine-protein kinase (Homo sapiens), P31749 [M227G]; assay: Induction of flag tagged AKT1 M227G Thr308 hyperphosphorylation expressed in HEK293 cells at 2.5 uM after 30 mins by immunoblotting; format: cell-based
[11] = tested on: RAC-alpha serine/threonine-protein kinase (Homo sapiens), P31749 [M227G]; assay: Induction of mCherry tagged AKT1 M227G Thr308 hyperphosphorylation expressed in HEK293 cells at 2.5 uM after 30 mins by immunoblotting; format: cell-based
HEK-293T [12] = assay: Induction myristoylated AKT2 M225G mutant Thr308 hyperphosphorylation expressed in HEK293T cells at 2.5 uM after 30 mins by immunoblotting; format: cell-based
HEK-293T [13] = assay: Induction of myristoylated AKT3 M229G mutant Thr308 hyperphosphorylation expressed in HEK293T cells at 2.5 uM after 30 mins by immunoblotting; format: cell-based
HEK-293T [14] = assay: Induction of myristoylated AKT3 M229G mutant Ser473 hyperphosphorylation expressed in HEK293T cells at 2.5 uM after 30 mins by immunoblotting; format: cell-based
[15] = tested on: RAC-alpha serine/threonine-protein kinase (Homo sapiens), P31749 [M227G]; assay: Inhibition of myristoylated AKT1 M227G mutant expressed in HEK293T cells assessed as reduction of GSK3-beta Ser9 phosphorylation after 30 mins by immunoblotting; format: cell-based; conditions: HEK-293T
[16] = tested on: RAC-alpha serine/threonine-protein kinase (Homo sapiens), P31749 [M227G]; assay: Induction of myristoylated AKT1 M227G mutant Thr308 hyperphosphorylation expressed in HEK293T cells at 2.5 uM after 30 mins pretreated with pan-PI3K inhibitor PIK90 for 10 mins before compound addition by immunoblotting; format: cell-based; conditions: HEK-293T
HEK-293T [17] = assay: Induction myristoylated AKT2 M225G mutant Thr308 hyperphosphorylation expressed in HEK293T cells at 2.5 uM after 30 mins pretreated with pan-PI3K inhibitor PIK90 for 10 mins before compound addition by immunoblotting; format: cell-based
HEK-293T [18] = assay: Induction of myristoylated AKT3 M229G mutant Ser473 hyperphosphorylation expressed in HEK293T cells at 2.5 uM after 30 mins pretreated with pan-PI3K inhibitor PIK90 for 10 mins before compound addition by immunoblotting; format: cell-based
[19] = tested on: RAC-alpha serine/threonine-protein kinase (Homo sapiens), P31749 [M227G]; assay: Induction of membrane localized myristoylated AKT1 M227G mutant Ser473 hyperphosphorylation expressed in HEK293T cells at 2.5 uM after 30 mins by immunoblotting; format: cell-based; conditions: HEK-293T
[20] = tested on: RAC-alpha serine/threonine-protein kinase (Homo sapiens), P31749 [M227G]; assay: Induction of myristoylated AKT1 M227G mutant Thr308 hyperphosphorylation expressed in HEK293T cells at 2.5 uM after 30 mins pretreated with PDK1 inhibitor BX-795 for 10 mins before compound addition by immunoblotting; format: cell-based; conditions: HEK-293T
HEK-293T [21] = assay: Induction myristoylated AKT2 M225G mutant Thr308 hyperphosphorylation expressed in HEK293T cells at 2.5 uM after 30 mins pretreated with mTOR kinase inhibitor PP242 for 10 mins before compound addition by immunoblotting; format: cell-based
HEK-293T [22] = assay: Induction of myristoylated AKT3 M229G mutant Thr308 hyperphosphorylation expressed in HEK293T cells at 2.5 uM after 30 mins pretreated with mTOR kinase inhibitor PP242 for 10 mins before compound addition by immunoblotting; format: cell-based
HEK-293T [23] = assay: Induction of myristoylated AKT2 M225G and kinase dead D289A mutant Thr308 hyperphosphorylation expressed in HEK293T cells at 2.5 uM after 30 mins by immunoblotting; format: cell-based
[24] = tested on: RAC-alpha serine/threonine-protein kinase (Homo sapiens), P31749 [M227G,D292A]; assay: Induction of nonmyristoylated AKT1 M227G and kinase dead D292A mutant Thr308 hyperphosphorylation expressed in HEK293T cells at 2.5 uM after 30 mins by immunoblotting; format: cell-based; conditions: HEK-293T
HEK-293T [25] = assay: Induction of nonmyristoylated AKT2 M225G and kinase dead D289A mutant Thr308 hyperphosphorylation expressed in HEK293T cells at 2.5 uM after 30 mins by immunoblotting; format: cell-based
MCF7 [26] = assay: Induction of myristoylated AKT2 M225G and kinase dead D289A mutant Thr308 hyperphosphorylation expressed in MCF7 cells at 2.5 uM after 30 mins by immunoblotting; format: cell-based
PC-3 = assay: Induction of myristoylated AKT2 M225G and kinase dead D289A mutant Thr308 hyperphosphorylation expressed in PC3 cells at 2.5 uM after 30 mins by immunoblotting; format: cell-based
[27] = tested on: RAC-alpha serine/threonine-protein kinase (Homo sapiens), P31749 [M227G]; assay: Induction of myristoylated AKT1 M227G Thr308 hyperphosphorylation expressed in MCF7 cells at 2.5 uM after 30 mins by immunoblotting; format: cell-based
[28] = tested on: RAC-alpha serine/threonine-protein kinase (Homo sapiens), P31749 [M227G]; assay: Induction of myristoylated AKT1 M227G Thr308 hyperphosphorylation expressed in MiaPaCa2 cells at 2.5 uM after 30 mins by immunoblotting; format: cell-based
[29] = tested on: RAC-alpha serine/threonine-protein kinase (Homo sapiens), P31749 [M227G]; assay: Induction of myristoylated AKT1 M227G mutant Thr308 hyperphosphorylation expressed in HEK293 cells after 30 mins by immunoblotting; conditions: HEK-293
[30] = tested on: RAC-alpha serine/threonine-protein kinase (Homo sapiens), P31749 [M227G]; assay: Increase in catalytic activity of compound exposed AKT1 M227G mutant expressed in HEK293 cells measured post compound dissociation by in vitro immunoprecipitation kinase assay relative to untreated AKT1 M227G mutant; conditions: HEK-293
[31] = target: RAC-alpha serine/threonine-protein kinase (Homo sapiens, UniProt P31749); assay: Inhibition of AKT1
RAC-alpha serine/threonine-protein kinase, sequence (P31749 whole entry): as the sequence (P31749 whole entry M227G/D292A) above, with G227M, A292D counted along it

[32] = target: Serine/threonine-protein kinase 26 (Homo sapiens) (UniProt Q9P289); assay: Inhibition of MST4 at 1 uM in presence of 100 uM ATP by Select Screen kinase assay relative to untreated control
Serine/threonine-protein kinase 26 (Homo sapiens), sequence (Q9P289 2-416 limits assumed): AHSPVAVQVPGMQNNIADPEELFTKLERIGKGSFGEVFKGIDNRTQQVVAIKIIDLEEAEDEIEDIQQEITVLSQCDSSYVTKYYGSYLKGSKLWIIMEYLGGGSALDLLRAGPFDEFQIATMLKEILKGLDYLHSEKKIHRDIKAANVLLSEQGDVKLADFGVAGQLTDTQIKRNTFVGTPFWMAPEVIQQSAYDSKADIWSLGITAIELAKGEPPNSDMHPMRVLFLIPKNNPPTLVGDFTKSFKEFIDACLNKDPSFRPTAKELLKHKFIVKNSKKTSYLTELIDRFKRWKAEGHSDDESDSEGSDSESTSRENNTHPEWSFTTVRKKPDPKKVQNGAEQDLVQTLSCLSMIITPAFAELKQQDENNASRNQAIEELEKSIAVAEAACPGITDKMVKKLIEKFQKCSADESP

Activity [2]: Active
Activity [3]: Active
Activity [6]: Active
Activity [7]: Active
Activity [8]: Active
Activity [9]: Active
Activity [10]: Active
Activity [11]: Active
inhibition [15]: Active
Activity [16]: inactive
Activity [19]: Active
Activity [20]: inactive
Activity [24]: Active
Activity [27]: Active
Activity [28]: Active
Activity [29]: Dose-dependent effect
fold change (FC) [30]: 10
Compound: CCCc1cc(-c2cncc(OC[C@@H](N)Cc3c[nH]c4ccccc34)c2)cc2c(C)n[nH]c12
Activity (MiaPaCa2 [1]): Active
Activity (MCF7 [4]): Active
Activity (MiaPaCa2 [5]): Active
Activity (HEK-293T [12]): Active
Activity (HEK-293T [13]): Active
Activity (HEK-293T [14]): Active
Activity (HEK-293T [17]): inactive
Activity (HEK-293T [18]): inactive
Activity (HEK-293T [21]): Active
Activity (HEK-293T [22]): Active
Activity (HEK-293T [23]): Active
Activity (HEK-293T [25]): Active
Activity (MCF7 [26]): Active
Activity (PC-3): Active

IC50 [31]: 22 µM
inhibition [32]: 11%
Compound: COc1ccccc1N1CCN(c2ncnc3[nH]nc(Br)c23)CC1
